Source: patent publication US6555114B1, “Immunodominant human T-cell epitopes of hepatitis C virus” (Innogenetics N.V., priority 1993, dated 2003)

What was measured:
[1] = test system: PBMC from 32 patients with chronic HCV; assay: T cell proliferation assay ((3H)-thymidine incorporation, stimulation index) with PBMC of chronic HCV patients; type: cell-based, human; conditions: for number of patients that recognized the single peptide: 8 proliferative responders to pools 2 and/or 3 among 11 interferon-responder HCV patients; for LPR in αIFN responders (summary of Table 7): both αIFN responders tested; for lymphoproliferative response (LPR) to peptide pools and single peptides: IFN responder, LPR to pools 2 and/or 3; for LPR in αIFN non-responders (summary of Table 7): two αIFN non-responders
[2] = test system: PBMC's from 18 healthy control subjects; assay: T cell proliferation assay with PBMC of healthy control subjects; type: cell-based, human; conditions: 17 control subjects, 23 proliferation assays
Description: As controls for the specificity of the lymphoproliferative responses, 18 healthy individuals aged 25-58 years (mean 38.6), 10 males and 8 females were selected. These subjects were negative for HCV antibodies and HCV-RNA.
The medium used for all cell cultures consisted of RPMI 1640 supplemented with 25 mM HEPES, 2 mM L-glutamine, 50 U/ml penicillin and 50 μg/ml streptomycin (all from Gibco Europe, Gent, Belgium), 5×10^−5 M 2-mercaptoethanol (Sigma, St. Louis, Mo.) and 10% heat-inactivated pooled human AB serum. This AB serum was obtained from healthy blood donors with blood group AB^+ and was only used when antibodies to HCV and HCV-RNA were absent. This “complemented” RPMI 1640 medium will hereafter be designated “complete medium”.
PBMC were isolated from heparinized venous blood by isopycnic density centrifugation on Ficoll Hypaque (Lymphoprep, Nyegaard, Denmark) and suspended in complete medium. […] PBMC in 200 μl of complete medium were cultured in 96 well round-bottomed microplates (Falcon Plastics) in the absence (unstimulated controls) or presence of varying concentrations of antigens for 5 days at 37° C. in an atmosphere of 5% CO2 in air. 0.5 μCi (^3H)-thymidine was then added to each well and 16 to 20 h later the cultures were harvested onto glass fiber filters using a multichannel cell harvester (PHD, Cambridge, Mass.) to measure the incorporation of (^3H)-thymidine by liquid scintillation counting in an LKB-Wallac 8100 counter (LKB, Bromma, Sweden). Results are expressed as stimulation index (SI; mean cpm of antigen-stimulated cultures/mean cpm of control cultures). Proliferation was considered positive when stimulation index was >3. In some figures the results are expressed as cpm (mean cpm of antigen-stimulated cultures—mean cpm of control cultures). Standard deviations of the mean cpm of triplicate cultures were consistently below 10%.
To analyze and summarize the results of 135 assays performed in the 32 HCV patients, we have chosen to consider the response of an individual patient to a particular antigen preparation (peptide pools 1 to 9, NS1-5*, NS1-7* or NS3 protein) as significant when it induces SI's 3 in at least half of the assays performed. The results shown in Table 4 have been obtained using this scoring method. […] The start of the Interferon therapy serves as the reference point, week 0. None of the patients responded to all the antigens. PBMC's from 13 of 18 (72%) clinical responders and 12 of 14 (85%) non-responders proliferated in response to at least one antigen preparation. All but one antigen preparation, peptide pool 8, induced a proliferative response in at least one subject. The most frequent responses were to peptide pools 2 and 3. Whereas both interferon-responders and non-responders proliferated equally well to peptide pool 2 (56% and 57%, respectively), non-responders reacted less well to peptide pool 3 (29% or 4 of 14) than responders (44% or 8 of 18). […] Clinical non-responders to interferon therapy also reacted more frequently (57 or 8 of 14) upon stimulation with the NS3 protein than responders (24% or 4 of 17). However, none of these differences in proliferative response rates to peptide pools 3, 5 and 9 or to NS3 protein reached statistical significance ([…] in ^2-test). […] Indeed, 8 of 17 responders recognized one or both peptides while none of the non-responders did so. A summary of the results of all these proliferation assays is provided in FIG. 2, in which the response rates of the HCV patients as well as 18 healthy control subjects towards the 12 antigen preparations. Indeed, to establish the relevance of the proliferative responses observed in HCV patients, PBMC's from 18 healthy control subjects were stimulated with the same antigen preparations. Overall, 27 assays were performed: a single assay in 10 subjects, two in 7 volunteers and 3 in one individual. In 12 control subjects none of the antigens induced a proliferative response. […]

[3] = patient 618, pools 4 assays, single peptides 1 assay
[4] = patient 620, αIFN non-responder (NR), week 20 of αIFN therapy
[5] = patient 621, pools 4 assays, single peptides 1 assay
[6] = patient 626, pools 9 assays, single peptides 5 assays
[7] = patient 626, αIFN responder (R), week 14 of αIFN therapy
[8] = patient 627, αIFN non-responder (NR), week 54 of αIFN therapy
[9] = patient 632, pools 8 assays, single peptides 4 assays
[10] = patient 636, αIFN responder (R), week 28 of αIFN therapy
[11] = patient 637, αIFN non-responder (NR), week 45 of αIFN therapy
[12] = patient 639, pools 4 assays, single peptides 2 assays
[13] = patient 615, pools 2 assays, single peptides 1 assay
[14] = patient 634, pools 2 assays, single peptides 1 assay

| Substance | number of patients that recognized the single peptide [1] | LPR in αIFN responders (summary of Table 7) [1] | lymphoproliferative response (LPR) to peptide pools and single peptides [1, 3] | stimulation index (SI), T-cell recognition [1, 4] | lymphoproliferative response (LPR) to peptide pools and single peptides [1, 5] | lymphoproliferative response (LPR) to peptide pools and single peptides [1, 6] | stimulation index (SI), T-cell recognition [1, 7] | stimulation index (SI), T-cell recognition [1, 8] | lymphoproliferative response (LPR) to peptide pools and single peptides [1, 9] | stimulation index (SI), T-cell recognition [1, 10] | stimulation index (SI), T-cell recognition [1, 11] | lymphoproliferative response (LPR) to peptide pools and single peptides [1, 12] | LPR in αIFN non-responders (summary of Table 7) [1] | number of control subjects that recognized the single peptide [2] | share of control subjects that recognized the single peptide [2] [%] | lymphoproliferative response (LPR) to peptide pools and single peptides ([1]; patient 604, pools 2 assays, single peptides 1 assay) | lymphoproliferative response (LPR) to peptide pools and single peptides [1, 13] | lymphoproliferative response (LPR) to peptide pools and single peptides [1, 14] |
| --- | --- | --- | --- | --- | --- | --- | --- | --- | --- | --- | --- | --- | --- | --- | --- | --- | --- | --- |
| GGAARALAHGVRVLEDGVNY (hepatitis C virus) [C25] | 5 | highest LPR | + (significant when it induces SI's 3 in at least half of the assays performed) | — (Only SI equal or greater than 3 are shown.) | + (significant when it induces SI's 3 in at least half of the assays performed) | + (significant when it induces SI's 3 in at least half of the assays performed) | 6 | — (Only SI equal or greater than 3 are shown.) | + (significant when it induces SI's 3 in at least half of the assays performed) | 9.7 | — (Only SI equal or greater than 3 are shown.) | + (significant when it induces SI's 3 in at least half of the assays performed) |  |  |  |  |  |  |
| GRTWAQPGYPWPLYGNEGCG (hepatitis C virus) [C13] |  | highest LPR |  |  |  |  | 4.4 | — (Only SI equal or greater than 3 are shown.) |  | 6.3 | — (Only SI equal or greater than 3 are shown.) |  |  |  |  |  |  |  |
| KVIDTLTCGFADLMGYIPLV (hepatitis C virus) [C21] |  | highest LPR |  |  |  |  | 3.3 | 3.6 | + (significant when it induces SI's 3 in at least half of the assays performed) | — (Only SI equal or greater than 3 are shown.) | — (Only SI equal or greater than 3 are shown.) |  | high PLR | 1 | 6 |  |  |  |
| LMGYIPLVGAPLGGAARALA (hepatitis C virus) [C23] | 3 |  |  | 4.1 |  |  | — (Only SI equal or greater than 3 are shown.) | — (Only SI equal or greater than 3 are shown.) | + (significant when it induces SI's 3 in at least half of the assays performed) | — (Only SI equal or greater than 3 are shown.) | — (Only SI equal or greater than 3 are shown.) |  | high PLR |  |  | + (significant when it induces SI's 3 in at least half of the assays performed) | + (significant when it induces SI's 3 in at least half of the assays performed) |  |
| LPGCSFSIFLLALLSCLTVP [C29] |  |  |  | — (Only SI equal or greater than 3 are shown.) |  |  | — (Only SI equal or greater than 3 are shown.) | — (Only SI equal or greater than 3 are shown.) |  | — (Only SI equal or greater than 3 are shown.) | — (Only SI equal or greater than 3 are shown.) |  |  |  |  |  |  |  |
| LYGNEGCGWAGWLLSPRGSR (hepatitis C virus) [C15] |  |  |  |  |  |  | — (Only SI equal or greater than 3 are shown.) | — (Only SI equal or greater than 3 are shown.) |  | — (Only SI equal or greater than 3 are shown.) | — (Only SI equal or greater than 3 are shown.) |  |  |  |  |  |  |  |
| PTDPRRRSRNLGKVIDTLTC (hepatitis C virus) [C19] | 3 | highest LPR |  |  |  |  | — (Only SI equal or greater than 3 are shown.) | — (Only SI equal or greater than 3 are shown.) | + (significant when it induces SI's 3 in at least half of the assays performed) | 7.1 | — (Only SI equal or greater than 3 are shown.) | + (significant when it induces SI's 3 in at least half of the assays performed) |  |  |  |  |  | + (significant when it induces SI's 3 in at least half of the assays performed) |
| Tetanus toxoid [TT, reference compound] |  |  |  | 4.1 |  |  | 14.5 | 19.1 |  | 3.6 | 4.2 |  |  |  |  |  |  |  |
| VLEDGVNYATGNLPGCSFSI (hepatitis C virus) [C27] | 6 | highest LPR | + (significant when it induces SI's 3 in at least half of the assays performed) | — (Only SI equal or greater than 3 are shown.) | + (significant when it induces SI's 3 in at least half of the assays performed) | + (significant when it induces SI's 3 in at least half of the assays performed) | 8.2 | — (Only SI equal or greater than 3 are shown.) | + (significant when it induces SI's 3 in at least half of the assays performed) | 5.8 | — (Only SI equal or greater than 3 are shown.) | + (significant when it induces SI's 3 in at least half of the assays performed) |  |  |  |  | + (significant when it induces SI's 3 in at least half of the assays performed) | + (significant when it induces SI's 3 in at least half of the assays performed) |
